# Laboratory results from patent US20260103474A1, “NOVEL COMPOUNDS FOR THE DIAGNOSIS OF TDP-43 PROTEINOPATHIES” (AC IMMUNE SA, priority 2022, published 2026).
# Read-outs that look alike come from different tables or passages of the source.
# Assays:
# [1] = molecular target: T1, Human brain derived TDP-43 aggregates (Homo sapiens, UniProt Q13148); experiment: Micro-radiobinding competition assay for binding affinity to TDP-43; details: for Ki: 0.24 nM to 2 μM vs tritiated reference ligand at 40 nM; for Human brain derived TDP-43 aggregates Mean % competition at 250 nM: non-radiolabeled compound at 250 nM vs tritiated reference ligand at 40 nM; for Human brain derived TDP-43 aggregates Mean % competition at 250 nM / Human brain derived TDP-43 aggregates Mean % competition at 2 μM: FTD sarkosyl-insoluble brain extracts; for Human brain derived TDP-43 aggregates Mean % competition at 2 μM: non-radiolabeled compound at 2 μM vs tritiated reference ligand at 40 nM
# T1 construct: Human FTD sarkosyl-insoluble brain extracts were spotted onto microarray slides
# T1 sequence (Q13148 261-414 limits assumed): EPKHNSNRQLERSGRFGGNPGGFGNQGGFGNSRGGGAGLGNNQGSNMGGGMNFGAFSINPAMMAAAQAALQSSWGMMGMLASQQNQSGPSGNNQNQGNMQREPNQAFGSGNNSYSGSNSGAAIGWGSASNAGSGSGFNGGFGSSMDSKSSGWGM
# Experimental: Human brain extracts were prepared as described in Laferriere et al., 2019, Nature Neurosc. A sample of brain tissue (frontal or temporal cortex) was homogenized at 1:4 (w/v) ratio in the homogenization-solubilization (HS) buffer at 4° C. using tissue homogenizer (Precellys) with CKmix homogenization tubes. The following sequence was used for homogenization: 3 cycles of 30 seconds at 5000 rpm (with 15 seconds pause between each cycle). Homogenized samples were aliquoted and stored at −80° C. in 1.5 mL low protein binding tubes.
# Brain homogenates were thawed on ice and resuspended in HS buffer to obtain a final concentration of 2% sarkosyl, 1 unit/μL Benzonase and 1 mM MgCl2. The samples were then incubated at 37° C. under constant shaking at 600 rpm on a thermomixer for 45 minutes (min). The supernatants were collected in a new tube (sarkosyl-soluble fraction, S1). The pellet was resuspended in 1000 μL of myelin floatation buffer and centrifuged at 20,000 g for 60 min at 4° C. The supernatant was carefully removed to remove all the floating lipids. This step was repeated if all the lipids could not be removed in a single step. The pellet was subsequently washed with Phosphate-Buffered Saline (PBS) and centrifuged for 30 min at 20,000 g at 4° C. The final pellet was resuspended in 200 μL PBS and stored at −80° C. (sarkosyl-insoluble fraction). The samples were analyzed by immunoblotting in denaturing conditions.
# Human FTD sarkosyl-insoluble brain extracts were spotted onto microarray slides. The slides were incubated with a tritiated reference ligand at 40 nM, and the example compounds (non-radiolabeled) at 2 μM and 250 nM. […] After incubation, slides were washed and scanned by a real-time autoradiography system (BeaQuant, ai4R). Quantification of the signal was performed by using the Beamage image analysis software (ai4R). Non-specific signal was determined with an excess of non-radiolabeled reference compound (2 μM) and specific binding was calculated by subtracting the non-specific signal from the total signal. Competition was calculated as percent, where 0% was defined as the specific binding in the presence of vehicle and 100% as the values obtained in the presence of excess of the non-radiolabeled reference compound. Ki values were calculated in GraphPad Prism8 by applying a nonlinear regression curve fit using a one site, specific binding model. Measurements were performed with at least two technical replicates in the two-concentration competition experiment and with one technical replicate in the experiments including a range of concentrations. For compounds tested in more than one experiment, the mean of the replicates or Ki values in independent experiments is reported.
# Abeta = molecular target: T2, Abeta (Homo sapiens, UniProt P05067); experiment: Radiobinding competition assay using Abeta reference compound on AD insoluble fraction of brain homogenates; type: binding; details: against [3H]Abeta reference compound
# T2 construct: an AD donor with confirmed burden of Tau and Abeta aggregates; from tissue; host or cells: frontal cortex of a human AD donor, Triton/sucrose-insoluble fraction
# T2 sequence (P05067 672-713 limits assumed): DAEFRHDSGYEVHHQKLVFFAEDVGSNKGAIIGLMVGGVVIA
# Experimental: Approximately 4 g of frozen tissue block from frontal cortex brain region was used from an AD donor with confirmed burden of Tau and Abeta aggregates. The tissue was homogenized in three volumes (1:3 w/v) of high salt buffer (50 mM Tris-HCl pH 7.5, 750 mM NaCl, 5 mM EDTA) supplemented with protease inhibitors (Complete; Roche 11697498001) at 4° C. with a glass Dounce homogenizer. The homogenate was transferred into polycarbonate centrifuge bottles (16×76 mm; Beckman 355603) and centrifuged at 100,000×g (38,000 RPM) in an ultracentrifuge (Beckman, XL100K) for 60 minutes at 4° C. using a pre-cooled 70.1 rotor (Beckman, 342184). Pellets were resuspended in high salt buffer supplemented with 1% Triton X-100 and homogenized at 4° C. with a syringe. The homogenates were centrifuged again at 100,000×g (38,000 RPM, 70.1 rotor) for 60 minutes at 4° C. Pellets were resuspended in high salt buffer supplemented with 1% Triton X-100 and 1 M sucrose and homogenized at 4° C. with a syringe. The homogenates were centrifuged at 100,000×g (38,000 RPM, 70.1 rotor) for 60 minutes at 4° C. The resulting pellets containing insoluble fraction were resuspended in PBS (1:2 w/v relative to starting tissue weight), aliquoted and stored at −80° C. until use.
# The reaction was performed in assay buffer (50 mM Tris pH 7.5 in 0.9% NaCl, 0.1% BSA) and incubated for two hours at room temperature (RT). Samples in duplicate were then filtered under vacuum in GF/C filter plates (PerkinElmer) to trap the aggregates with the bound radioligand and washed with 100 μL ice-cold 50 mM Tris pH 7.5. The GF/C filters were then dried and scintillation liquid (UltimateGold, PerkinElmer, 6013151) was added in each well. The filters were analyzed on a Microbeta2 scintillation counter (PerkinElmer). Values for the maximal signal were obtained in the absence of non-radiolabeled compound, while 100% displacement was obtained using 1 μM of non-radiolabeled reference compound. Ki values were calculated by nonlinear regression, using a one site—fit Ki model in Prism V7 (GraphPad).
# [2] = cells printed in μM, read-out: Ki on AD brain homogenates
Structure (SMILES),Ki [1] [nM],Human brain derived TDP-43 aggregates Mean % competition at 250 nM [1] [%],Human brain derived TDP-43 aggregates Mean % competition at 2 μM [1] [%],Ki (Abeta; [2]) [µM],Ki (Abeta; read-out: Ki (nM) on AD brain homogenates) [µM]
"O=C1c2sc(-c3ccc(N4CCCC4)nc3F)nc2CCN1c1cccnc1 [Compound 9, 2-(2-fluoro-6-(pyrrolidin-1-yl)pyridin-3-yl)-5-(pyridin-3-yl)-6,7-dihydrothiazolo[5,4-c]pyridin-4(5H)-one]",31,62,75,> 1,
"O=C1c2sc(-c3ccc(N4CC[C@@H](F)C4)nc3F)nc2CCN1c1ncccn1 [Compound 15, 2-[2-fluoro-6-[(3R)-3-fluoropyrrolidin-1-yl]-3-pyridyl]-5-pyrimidin-2-yl-6,7-dihydrothiazolo[5,4-c]pyridine-4-one]",11,62,86,> 1,
O=C1c2sc(-c3ccc(N4CC[C@H](F)C4)nc3F)nc2CCN1c1ncccn1 [Compound 16],5,67,96,> 1,
O=C1c2sc(-c3ccc(N4CCCC4)nc3F)nc2CCN1c1ccncc1 [Compound 14],,48,34,,
Cn1cc(N2CCc3nc(-c4ccc(N5CC[C@@H](F)C5)nc4F)sc3C2=O)cn1 [Compound 11],,73,102,,
Nc1cc(N2CCc3nc(-c4ccc(N5CCC[C@H](F)C5)nc4F)sc3C2=O)ccn1 [Compound 29],43,45,86,> 1,
O=C1c2sc(-c3ccc(N4CCCC4)nc3F)nc2CCN1c1ccc(F)nc1 [Compound 12],,56,59,,
"O=C1c2sc(-c3ccc(N4CCC[C@@H](F)C4)nc3F)nc2CCN1c1cnsc1 [Compound 24, (R)-2-(2-fluoro-6-(3-fluoropiperidin-1-yl)pyridin-3-yl)-5-(isothiazol-4-yl)-6,7-dihydrothiazolo[5,4-c]pyridin-4(5H)-one]",65,61,83,> 1,
"O=C1c2sc(-c3ccc(N4CC[C@H](F)C4)nc3F)nc2CCN1c1cnsc1 [Compound 25, (S)-2-(2-fluoro-6-(3-fluoropyrrolidin-1-yl)pyridin-3-yl)-5-(isothiazol-4-yl)-6,7-dihydrothiazolo[5,4-c]pyridin-4(5H)-one]",48,78,96,> 1,
"O=C1c2sc(-c3ccc(N4CCCCC4)nc3F)nc2CCN1c1ccnc(F)c1 [Compound 23, 2-(2-fluoro-6-(piperidin-1-yl)pyridin-3-yl)-5-(2-fluoropyridin-4-yl)-6,7-dihydrothiazolo[5,4-c]pyridin-4(5H)-one]",25,73,104,> 1,
O=C1c2sc(-c3ccc(N4CC[C@@H](F)C4)nc3F)nc2CCN1c1cnsc1 [Compound 22],54,68,100,,
"Nc1cc(N2CCc3nc(-c4ccc(N5CCCC5)nc4F)sc3C2=O)ccc1F [Compound 10, 5-(3-amino-4-fluorophenyl)-2-(2-fluoro-6-(pyrrolidin-1-yl)pyridin-3-yl)-6,7-dihydrothiazolo[5,4-c]pyridin-4(5H)-one]",16,52,75,,0.35
Cn1cc(N2CCc3nc(-c4ccc(N5CCCC5)nc4F)sc3C2=O)cn1 [Compound 21],30,46,85,,
O=C1c2sc(-c3ccc(N4CC[C@@H](F)C4)nc3F)nc2CCN1c1cncnc1 [Compound 13],,57,84,> 1,
"O=C1c2sc(-c3ccc(N4CCC[C@H](F)C4)nc3F)nc2CCN1c1cnsc1 [Compound 27, (S)-2-(2-fluoro-6-(3-fluoropiperidin-1-yl)pyridin-3-yl)-5-(isothiazol-4-yl)-6,7-dihydrothiazolo[5,4-c]pyridin-4(5H)-one]",48,57,94,> 1,

# Other lines, results leading:
Ki [1] [nM],Human brain derived TDP-43 aggregates Mean % competition at 250 nM [1] [%],Human brain derived TDP-43 aggregates Mean % competition at 2 μM [1] [%],Ki (Abeta; [2]) [µM],Ki (Abeta; read-out: Ki (nM) on AD brain homogenates) [µM],Structure (SMILES)
7,66,75,,,O=C1c2sc(-c3ccc(N4CC[C@H](F)C4)nc3F)nc2CCN1c1ccnnc1 [Compound 36]
51,51,73,> 1,,O=C1c2sc(-c3ccc(N4CC[C@@H](F)C4)nc3F)nc2CCN1c1ccncc1 [Example 7]
4,65,80,> 1,,N#Cc1c(N)cccc1N1CCc2nc(-c3ccc(N4CC[C@H](F)C4)nc3F)sc2C1=O [Compound 32]
7,66,93,,,N#Cc1c(N)cccc1N1CCc2nc(-c3ccc(N4CCC[C@@H](F)C4)nc3F)sc2C1=O [Compound 30]
4,62,70,> 1,,N#Cc1c(N)cccc1N1CCc2nc(-c3ccc(N4CCC[C@H](F)C4)nc3F)sc2C1=O [Compound 31]
5,60,77,> 1,,N#Cc1c(N)cccc1N1CCc2nc(-c3ccc(N4CC[C@@H](F)C4)nc3F)sc2C1=O [Compound 34]
36,60,86,,,O=C1c2sc(-c3ccc(N4CC[C@@H](F)C4)nc3F)nc2CCN1c1cscn1 [Compound 33]
